What all share (format): functional
The test system of assay [1] is PC-3. In words: Antitumor activity against human PC-3M-1E8 cell line by SRB assay. (Sulforhodamine B stains cellular protein and so reports cell mass.)
For assay [2], the system named is HeLa. The assay is described as follows: Antitumor activity against human HeLa cell line by SRB assay.
The test system of assay [3] is Bel-7402. In words: Antitumor activity against human Bel7402 cell line by MTT assay. Background: Tetrazolium dyes change colour on reduction, which living cells bring about.
Assay [4] concerns BGC-823. The assay is described as follows: Antitumor activity against human BGC823 cell line by SRB assay.
The test system of assay [5] is HL-60. In words: Antitumor activity against human HL60 cell line by SRB assay.
The test system of assay [6] is MDA-MB-435. The assay is described as follows: Antitumor activity against human MDA-MB-435 cell line by SRB assay.
Assay [7] relates to PC-3. In words: Antitumor activity against human PC-3M-1E8 cell line by MTT assay.
The test system of assay [8] is Bel-7402. The assay is described as follows: Antitumor activity against human Bel7402 cell line by SRB assay.
In assay [9] the test system is HeLa. The assay is described as follows: Antitumor activity against human HeLa cell line by MTT assay.

By Inhibition is commonly meant the change of the read-out against control, counted positive when it falls. `C=CC(C)(CC/C=C(/CO)C(=O)O[C@H]1CC2(C(=O)O[C@@H]3O[C@H](CO)[C@@H](O)[C@H](O)[C@@H]3O[C@H]3O[C@H](C)[C@@H](O[C@H]4O[C@H](CO)[C@@H](O)[C@@H]4O)[C@H](O[C@H]4O[C@@H](CO)[C@H](O)[C@@H](O)[C@@H]4O)[C@@H]3O)C(CC1(C)C)C1=CCC3C4(C)CC[C@H](O[C@@H]5O[C@H](CO[C@H]6O[C@@H](C)[C@@H](O)[C@@H](O)[C@@H]6O[C@H]6OC[C@H](O)[C@@H](O)[C@@H]6O)[C@@H](O)[C@H](O)[C@H]5OC5O[C@H](CO)[C@@H](O)[C@H](O)[C@H]5O)C(C)(C)C4CCC3(C)[C@]1(C)C[C@H]2O)O[C@H]1O[C@@H](C)[C@H](O)[C@@H](O)[C@@H]1O` (stereo not given in full) [JULIBROSIDE J31]: the Inhibition stood at 80.85% in assay [1]; 83.48% in [2]; 44.34% in assay [3]; 15.16% in assay [4]; 39.33% in assay [5]; 80.41% in [6]. Moreover, the Inhibition is given as 94.71% in assay [7], 46.61% in assay [8] and 64.33% in [9].
Take `C=CC(C)(CC/C=C(/CO)C(=O)O[C@H]1CC2(C(=O)O[C@@H]3O[C@H](CO)[C@@H](O)[C@H](O)[C@@H]3O[C@H]3O[C@H](C)[C@@H](O[C@H]4O[C@H](CO)[C@@H](O)[C@@H]4O)[C@H](O[C@H]4O[C@@H](CO)[C@H](O)[C@@H](O)[C@@H]4O)[C@@H]3O)C(CC1(C)C)C1=CCC3C4(C)CC[C@H](O[C@@H]5O[C@H](CO[C@H]6O[C@@H](C)[C@@H](O)[C@@H](O)[C@@H]6O[C@H]6OC[C@H](O)[C@@H](O)[C@@H]6O)[C@@H](O)[C@H](O)[C@H]5NC(C)=O)C(C)(C)C4CCC3(C)[C@]1(C)C[C@H]2O)O[C@H]1OC[C@H](O)[C@@H](O)[C@@H]1O` (stereo not given in full) [JULIBROSIDE J30]: the Inhibition in assay [1] is 84.98%; in assay [2] it was 91.65%; in assay [3] it was 61.87%; in assay [4], 46.66%; in assay [5], 25.59%; in assay [6], 75.68%. The Inhibition came to 75.96% in [7], 57.49% in [8] and 92.19% in assay [9].
With `COc1cccc2c1C(=O)c1c(O)c3c(c(O)c1C2=O)C[C@@](O)(C(=O)CO)C[C@@H]3O[C@H]1C[C@H](N)[C@H](O)[C@H](C)O1` [DOXORUBICIN], the Inhibition in assay [3] was found to be 51.26%; in assay [7] it was 91.61%; in assay [9], 76.96%.
As for `C=C[C@@](C)(CC/C=C(\CO)C(=O)O[C@H]1C[C@]2(C(=O)O[C@@H]3O[C@H](CO)[C@@H](O)[C@H](O)[C@H]3O[C@@H]3O[C@@H](C)[C@H](O[C@@H]4O[C@@H](CO)[C@H](O)[C@H]4O)[C@@H](O[C@@H]4O[C@H](CO)[C@@H](O)[C@H](O)[C@H]4O)[C@H]3O)[C@H](O)C[C@]3(C)C(=CC[C@@H]4[C@@]5(C)CC[C@H](O[C@@H]6O[C@H](CO[C@@H]7O[C@H](C)[C@H](O)[C@H](O)[C@H]7O[C@@H]7OC[C@@H](O)[C@H](O)[C@H]7O)[C@@H](O)[C@H](O)[C@H]6NC(C)=O)C(C)(C)[C@@H]5CC[C@]43C)[C@@H]2CC1(C)C)O[C@@H]1O[C@H](C)[C@@H](O)[C@H](O)[C@H]1O` [JULIBROSIDE J29], the Inhibition in assay [1] was determined as 85.37%; in assay [2], 94.9%; in [3], 50.37%; in assay [4] it was 52.9%; in assay [5] it was 25.35%; in assay [6], 84.47%. In addition, the Inhibition in assay [7] is reported as 81.4%; in assay [8] it was 67.14%; in assay [9], 87.75%.

The values above are taken from ChEMBL document CHEMBL1147013, “Three anti-tumor saponins from Albizia julibrissin” (2006).
